Data published in US10472612B2, “Cell culture system” (PRESIDENT AND FELLOWS OF HARVARD COLLEGE, priority 2011, dated 2019).

Assays:
Caco-2 cell monolayer [1] = assay type: cell-based; settings: flow 40 μL/hr, cyclic strain 10%, 0.15 Hz
Protocol: Epithelial Barrier Measurements. The integrity of the human intestinal epithelial cell monolayer resulting from establishment of apical tight junctions was evaluated by staining for the tight junctional protein, occluidin,^29 using confocal immunofluorescence microscopy and by measuring trans-epithelial electrical resistance (TEER). In Transwell cultures, TEER was measured using a Millicell ERS meter (Millipore, Bedford, Mass.) coupled to a chopstick-like electrode, and TEER values (Ω cm^2) were determined by subtracting the baseline resistance value measured in the absence of cells and then multiplying the remaining ‘specific’ resistance value (Ω) times the cell culture surface area (cm^2). […] Again, the baseline resistance value measured in the absence of cells was subtracted from results obtained with the Caco-2 monolayer, and specific TEER values were determined by multiplying the specific resistance times the total cell culture surface area on the PDMS membrane (Table 1).

Caco-2 cell monolayer [2] = test: LGG co-culture on Caco-2 monolayer in static Transwell; assay type: cell-based, human; settings: first day of co-culture, not measurable after 48 hours
Protocol: Epithelial Barrier Measurements. The integrity of the human intestinal epithelial cell monolayer resulting from establishment of apical tight junctions was evaluated by staining for the tight junctional protein, occluidin,^29 using confocal immunofluorescence microscopy and by measuring trans-epithelial electrical resistance (TEER). In Transwell cultures, TEER was measured using a Millicell ERS meter (Millipore, Bedford, Mass.) coupled to a chopstick-like electrode, and TEER values (Ω cm^2) were determined by subtracting the baseline resistance value measured in the absence of cells and then multiplying the remaining ‘specific’ resistance value (Ω) times the cell culture surface area (cm^2). The TEER of the Caco-2 monolayer cultured in the Gut-on-a-Chip was measured using a voltage-ohm meter (87V Industrial Multimeter, Fluke Corporation, Everett, Wash.) coupled to Ag/AgCl electrode wires (0.008″ in diameter; A-M systems, Inc., Sequim, Wash.); control studies confirmed that similar TEER results were obtained with both methods. Again, the baseline resistance value measured in the absence of cells was subtracted from results obtained with the Caco-2 monolayer, and specific TEER values were determined by multiplying the specific resistance times the total cell culture surface area on the PDMS membrane (Table 1).
Microbial Studies. […]

[3] = test system: Caco-2 cell monolayer alone or with HMVE cell monolayer; test: Molecular permeability through cell monolayer in gut-on-a-chip with or without mechanical strain (Example 1); assay type: in vitro ADME, human; settings: Caco-2 monolayer alone or with HMVE monolayer; cyclic stretching 0.15 Hz, 30 μL/h
Protocol: In a fluidic condition (N=4), constant perfusion flow of 30 μL/h was conducted without any stretching motions (i.e. shear stresses only). […] In a static condition (N=4), transport experiment was performed in a Transwell system. Error bars indicate standard errors.
In a fluidic condition (N=2), constant perfusion flow at 30 μL/h was conducted without any stretching motions (i.e. shear stresses only). […] In a static condition (N=4), transport experiments were performed in the Transwell system. Error bars indicate standard errors.
In a fluidic condition (N=5), constant perfusion flow of 30 μL/h was conducted without any stretching motions (i.e. shear stresses only). […] In a static condition (N=3), transport experiment was performed in a Transwell system. Error bars indicate standard errors.
After the cell monolayers were fully confluent and stabilized under defined fluidic conditions, transport experiments were conducted. […] The co-cultured monolayers of Caco-2 and HMVE cells experienced with cyclic deformations for 12 hours or more prior to initiating the transport or barrier functional analysis experiments. […] Electrical resistances between the top and the bottom microchannels were monitored using an Ag/AgCl electrode equipped with an Ohm meter, and the resistance was converted into TEER value by multiplying values by the surface area of the cell monolayer. […]

| Substance | barrier integrity (TEER) during co-culture (Caco-2 cell monolayer [1]) | TEER during co-culture (Caco-2 cell monolayer [2]) | effect of mechanical strain on paracellular transport [3] |
| --- | --- | --- | --- |
| Lactobacillus rhamnosus GG [LGG] | improved | dissipated | – |
| Lucifer yellow | – | – | increased |
